Reference: article PMC4021102, “The onset of grapevine berry ripening is characterized by ROS accumulation and lipoxygenase-mediated membrane peroxidation in the skin” (BMC Plant Biology, 2014)

Biological target: T1, PnLOXA (Vitis vinifera, UniProt D7SLA9)
T1 construct: gene VIT_06s0004g01510
Settings: 0.1 mM substrate, pH 6.5, 25 °C; exclusively 13-product

T1 sequence (D7SLA9 entry or part of it): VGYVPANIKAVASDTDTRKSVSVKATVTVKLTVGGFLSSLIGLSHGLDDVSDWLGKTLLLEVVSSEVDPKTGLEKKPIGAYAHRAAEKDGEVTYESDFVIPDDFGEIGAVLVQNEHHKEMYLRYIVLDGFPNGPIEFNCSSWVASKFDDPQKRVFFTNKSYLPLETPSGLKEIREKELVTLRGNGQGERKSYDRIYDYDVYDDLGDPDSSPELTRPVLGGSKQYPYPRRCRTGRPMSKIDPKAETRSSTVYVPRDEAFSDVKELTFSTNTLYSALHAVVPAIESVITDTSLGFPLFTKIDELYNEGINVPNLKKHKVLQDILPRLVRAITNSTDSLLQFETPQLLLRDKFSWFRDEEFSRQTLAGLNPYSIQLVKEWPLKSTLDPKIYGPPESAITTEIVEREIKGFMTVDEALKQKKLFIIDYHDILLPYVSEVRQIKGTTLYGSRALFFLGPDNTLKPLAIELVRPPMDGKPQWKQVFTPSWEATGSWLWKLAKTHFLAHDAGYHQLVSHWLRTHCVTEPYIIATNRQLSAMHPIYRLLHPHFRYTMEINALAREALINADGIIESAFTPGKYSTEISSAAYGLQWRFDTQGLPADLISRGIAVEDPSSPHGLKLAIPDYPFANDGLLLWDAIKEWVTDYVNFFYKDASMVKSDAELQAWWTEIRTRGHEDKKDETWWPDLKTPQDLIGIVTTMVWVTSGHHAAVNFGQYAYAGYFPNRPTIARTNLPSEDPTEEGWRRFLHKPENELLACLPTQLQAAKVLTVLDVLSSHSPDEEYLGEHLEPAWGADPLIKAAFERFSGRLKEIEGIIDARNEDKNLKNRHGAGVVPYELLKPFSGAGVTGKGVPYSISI

## CC/C=C\C/C=C\C/C=C\CCCCCCCC(=O)O [α-linolenic acid]
  peroxidation product identified by ESI-MS/MS: PnLOXA catalyzed the regiospecific peroxidation of α-linolenic acid to produce exclusively 13-HOTrE
